Test system: gastric secretion (gastric acid output) in chronic gastrostormy tube-implanted dogs
Assay: Gastric secretion inhibitory action in chronic gastrostormy tube-implanted dogs (histamine-stimulated)
Format: in vivo
Details: i.d., histamine i.v.; for Gastric secretion inhibitory action (%): first day, 1 h 40 min to 2 h after administration; for Gastric secretion inhibition duration (%): second day (24 hours after administration)
Protocol: Gastric Secretion Inhibitory Action in Chronic Gastrostormy Tube-Implanted Dogs
Large dogs (body weight: 14-19 kg) having chronic gastrostormy tubes implanted were used to examine the gastric secretion inhibitory action and gastric secretion inhibitory action durations of the example compounds. The experiment was conducted over a period of 2 days. On the first day, histamine (50 or 75 μg/kg/h) was continuously administered intravenously for 3 hours and gastric juice was taken every 20 minutes. One hour after starting histamine administration, the example compound suspended or dissolved in a 0.5% methylcellulose solution was administered to the duodenum through an indwelling catheter at a dose of 0.1 ml/kg. The gastric secretion inhibitory action of the example compound was examined for 2 hours thereafter. On the second day (24 hours after administration of the example compound), histamine was continuously administered intravenously for 2 hours and gastric juice was taken every 20 minutes to examine the gastric secretion inhibitory action duration. After measuring the gastric juice volume, 0.5 ml of gastric juice was sampled and subjected to neutralization titration to pH 7.0 with a 0.04 mol/l sodium hydroxide solution to measure the acid concentration. The acid concentration was multiplied by the gastric juice volume to determine the gastric acid output. The gastric secretion inhibitory action was evaluated by the gastric secretion inhibition (%) on the first day. The gastric secretion inhibitory action (%) was determined by the formula shown below. Where two or more cases were examined, the average of all the cases was determined.
Gastric secretion inhibitory action (%)=(A−B)/A×100
[A]: Gastric acid output during 20 minutes, from 40 minutes to 1 hour after start of histamine administration [B]: Gastric acid output during 20 minutes, from 1 hour and 40 minutes to 2 hours after administration of example compound
The gastric secretion inhibitory action duration was evaluated by the gastric secretion inhibition (%) on the second day. The gastric secretion inhibitory action duration (%) was determined by the formula shown below.
Gastric secretion inhibitory action duration (%)=(C−D)/C×100
[C]: Total gastric acid output from start to one hour after histamine administration on the first day [D]: Total gastric acid output from start to one hour after histamine administration on the second day

With `Cc1cnc(C[S+]([O-])c2nc3ccccc3[n-]2)c(C)c1OCC1COC(C)(C)OC1.[Na+]` [Compound A, Sodium salt of (R)-2-({[4-(2,2-dimethyl-1,3-dioxan-5-yl)methoxy-3,5-dimethylpyridin-2-yl]methyl}sulfinyl)-1H-benzimidazole] the “Gastric secretion inhibitory action (%)” value (0.1 mg/kg, average of 4 cases) was 8%, the “Gastric secretion inhibition duration (%)” value (0.1 mg/kg, 4 cases) was 6% and the “Gastric secretion inhibitory action (%)” value (0.2 mg/kg, average of 4 cases) was 65%. For the same compound, the “Gastric secretion inhibition duration (%)” value (0.2 mg/kg, 4 cases) was 46%, the “Gastric secretion inhibitory action (%)” value (0.4 mg/kg, average of 10 cases) was 97% and the “Gastric secretion inhibition duration (%)” value (0.4 mg/kg, 10 cases) was 77%. For the same compound, the “Gastric secretion inhibitory action (%)” value (0.8 mg/kg, average of 8 cases) was 100% and the “Gastric secretion inhibition duration (%)” value (0.8 mg/kg, 8 cases) was 89%.
